Experimental data published in the supplement of paper PMC10733146.

Legend:
Experiment in all cases: viability relative to DMSO control (fraction); higher = less drug effect (more viable cells)
Conditions in all cases: 48 h
Barasertib = compound: CCN(CCCOc1ccc2c(Nc3cc(CC(=O)Nc4cccc(F)c4)[nH]n3)ncnc2c1)CCOP(=O)(O)O [Barasertib]
How it was run: (§1)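 Viability was measured as CellTiter-Glo luminescence relative to the median of 16 inner DMSO wells. Primary mononuclear tumour cells, fresh or cryopreserved, were Ficoll-isolated from blood or bone marrow or taken from processed lymph node. They were seeded at 4 × 10^4 cells per well into 384-well plates holding pre-plated compounds at five concentrations, one well each, and kept in RPMI-1640 with penicillin/streptomycin, L-glutamine and human serum at 37 °C and 5% CO2 for 48 h.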

Pomalidomide = compound: Nc1cccc2c1C(=O)N(C1CCC(=O)NC1=O)C2=O [Pomalidomide]
How it was run: as §1

Palbociclib = compound: CC(=O)c1c(C)c2cnc(Nc3ccc(N4CCNCC4)cn3)nc2n(C2CCCC2)c1=O [Palbociclib]
How it was run: as §1

Chlorambucil = compound: O=C(O)CCCc1ccc(N(CCCl)CCCl)cc1 [Chlorambucil]
How it was run: as §1

Tofacitinib = compound: C[C@@H]1CCN(C(=O)CC#N)C[C@@H]1N(C)c1ncnc2[nH]ccc12 [Tofacitinib]
How it was run: as §1

Filgotinib = compound: O=C(Nc1nc2cccc(-c3ccc(CN4CCS(=O)(=O)CC4)cc3)n2n1)C1CC1 [Filgotinib]
How it was run: as §1

Duvelisib = compound: C[C@H](Nc1ncnc2nc[nH]c12)c1cc2cccc(Cl)c2c(=O)n1-c1ccccc1 [Duvelisib]
How it was run: as §1

[1] = compound: CCc1ccc(/C=C2/SC(=S)NC2=O)cc1
How it was run: as §1

Etoposide = compound: COc1cc([C@@H]2c3cc4c(cc3[C@@H](O[C@@H]3O[C@@H]5CO[C@@H](C)O[C@H]5[C@H](O)[C@H]3O)[C@H]3COC(=O)[C@H]23)OCO4)cc(OC)c1O [Etoposide]
How it was run: as §1

[2] = compound: C[C@H](NC(=O)CCC(F)(F)F)C(=O)N[C@@H]1C(=O)N(CCO)c2ncccc2-c2ccccc21
How it was run: as §1

Selinexor = compound: O=C(/C=C\n1cnc(-c2cc(C(F)(F)F)cc(C(F)(F)F)c2)n1)NNc1cnccn1 [Selinexor]
How it was run: as §1

Navitoclax = compound: CC1(C)CCC(c2ccc(Cl)cc2)=C(CN2CCN(c3ccc(C(=O)NS(=O)(=O)c4ccc(N[C@H](CCN5CCOCC5)CSc5ccccc5)c(S(=O)(=O)C(F)(F)F)c4)cc3)CC2)C1 [Navitoclax]
How it was run: as §1

Midostaurin hydrate = compound: CO[C@@H]1[C@H](N(C)C(=O)c2ccccc2)C[C@H]2O[C@]1(C)n1c3ccccc3c3c4c(c5c6ccccc6n2c5c31)C(=O)NC4 [Midostaurin hydrate]
How it was run: as §1

EPZ-6438 = compound: CCN(c1cc(-c2ccc(CN3CCOCC3)cc2)cc(C(=O)NCc2c(C)cc(C)[nH]c2=O)c1C)C1CCOCC1 [EPZ-6438]
How it was run: as §1

SGC 0946 = compound: CC(C)N(CCCNC(=O)Nc1ccc(C(C)(C)C)cc1)C[C@H]1O[C@@H](n2cc(Br)c3c(N)ncnc32)[C@H](O)[C@@H]1O [SGC 0946]
How it was run: as §1

primary CLL patient cells (S043)
viability (Barasertib; 0.0008 µM): 0.995
viability (Barasertib; 0.004 µM): 0.966
viability (Barasertib; 0.02 µM): 0.952
viability (Barasertib; 0.1 µM): 0.924
viability (Barasertib; 0.5 µM): 0.929
viability (Pomalidomide; 0.0032 µM): 0.98
viability (Pomalidomide; 0.016 µM): 1.07
viability (Pomalidomide; 0.08 µM): 1.08
viability (Pomalidomide; 0.4 µM): 1.02
viability (Pomalidomide; 2 µM): 1.03
viability (Palbociclib; 0.024 µM): 0.981
viability (Palbociclib; 0.12 µM): 0.959
viability (Palbociclib; 0.6 µM): 0.876
viability (Palbociclib; 3 µM): 0.722
viability (Palbociclib; 15 µM): 0.421
viability (Chlorambucil; 0.032 µM): 0.942
viability (Chlorambucil; 0.16 µM): 0.954
viability (Chlorambucil; 0.8 µM): 0.977
viability (Chlorambucil; 4 µM): 0.859
viability (Chlorambucil; 20 µM): 0.441
viability (Tofacitinib; 0.024 µM): 0.937
viability (Tofacitinib; 0.12 µM): 0.965
viability (Tofacitinib; 0.6 µM): 0.961
viability (Tofacitinib; 3 µM): 0.969
viability (Tofacitinib; 15 µM): 1.14
viability (Filgotinib; 0.024 µM): 0.911
viability (Filgotinib; 0.12 µM): 0.91
viability (Filgotinib; 0.6 µM): 0.894
viability (Filgotinib; 3 µM): 0.919
viability (Filgotinib; 15 µM): 0.257
viability (Duvelisib; 0.0016 µM): 0.768
viability (Duvelisib; 0.008 µM): 0.759
viability (Duvelisib; 0.04 µM): 0.704
viability (Duvelisib; 0.2 µM): 0.739
viability (Duvelisib; 1 µM): 0.677
viability ([1]; 0.024 µM): 0.742
viability ([1]; 0.12 µM): 0.789
viability ([1]; 0.6 µM): 0.832
viability ([1]; 3 µM): 0.847
viability ([1]; 15 µM): 0.868
viability (Etoposide; 0.032 µM): 1.12
viability (Etoposide; 0.16 µM): 1.02
viability (Etoposide; 0.8 µM): 0.987
viability (Etoposide; 4 µM): 1.01
viability (Etoposide; 20 µM): 0.813
viability ([2]; 0.016 µM): 0.892
viability ([2]; 0.08 µM): 1.11
viability ([2]; 0.4 µM): 0.984
viability ([2]; 2 µM): 1.1
viability ([2]; 10 µM): 0.896
viability (Selinexor; 0.008 µM): 0.788
viability (Selinexor; 0.04 µM): 0.746
viability (Selinexor; 0.2 µM): 0.713
viability (Selinexor; 1 µM): 0.595
viability (Selinexor; 5 µM): 0.54
viability (Navitoclax; 0.0032 µM): 1.05
viability (Navitoclax; 0.016 µM): 0.991
viability (Navitoclax; 0.08 µM): 0.989
viability (Navitoclax; 0.4 µM): 0.85
viability (Navitoclax; 2 µM): 0.666
viability (Midostaurin hydrate; 0.024 µM): 0.923
viability (Midostaurin hydrate; 0.12 µM): 0.911
viability (Midostaurin hydrate; 0.6 µM): 1.06
viability (Midostaurin hydrate; 3 µM): 1.04
viability (Midostaurin hydrate; 15 µM): 0.57
viability (EPZ-6438; 0.024 µM): 1.05
viability (EPZ-6438; 0.12 µM): 0.982
viability (EPZ-6438; 0.6 µM): 0.926
viability (EPZ-6438; 3 µM): 0.963
viability (EPZ-6438; 15 µM): 0.899
viability (SGC 0946; 0.024 µM): 0.87
viability (SGC 0946; 0.12 µM): 0.88
viability (SGC 0946; 0.6 µM): 0.877
viability (SGC 0946; 3 µM): 0.872
viability (SGC 0946; 15 µM): 0.756

primary FL patient cells (S087)
viability (Barasertib; 0.0008 µM): 0.918
viability (Barasertib; 0.004 µM): 0.907
viability (Barasertib; 0.02 µM): 0.967
viability (Barasertib; 0.1 µM): 1.03
viability (Barasertib; 0.5 µM): 1.01
viability (Pomalidomide; 0.0032 µM): 0.992
viability (Pomalidomide; 0.016 µM): 1.02
viability (Pomalidomide; 0.08 µM): 1.09
viability (Pomalidomide; 0.4 µM): 0.995
viability (Pomalidomide; 2 µM): 0.994
viability (Palbociclib; 0.024 µM): 0.979
viability (Palbociclib; 0.12 µM): 0.917
viability (Palbociclib; 0.6 µM): 0.947
viability (Palbociclib; 3 µM): 0.788
viability (Palbociclib; 15 µM): 0.123
viability (Chlorambucil; 0.032 µM): 0.991
viability (Chlorambucil; 0.16 µM): 0.961
viability (Chlorambucil; 0.8 µM): 0.955
viability (Chlorambucil; 4 µM): 0.925
viability (Chlorambucil; 20 µM): 0.706
viability (Tofacitinib; 0.024 µM): 0.972
viability (Tofacitinib; 0.12 µM): 0.945
viability (Tofacitinib; 0.6 µM): 0.978
viability (Tofacitinib; 3 µM): 0.969
viability (Tofacitinib; 15 µM): 1
viability (Filgotinib; 0.024 µM): 1.04
viability (Filgotinib; 0.12 µM): 0.977
viability (Filgotinib; 0.6 µM): 1
viability (Filgotinib; 3 µM): 0.916
viability (Filgotinib; 15 µM): 0.737
viability (Duvelisib; 0.0016 µM): 0.849
viability (Duvelisib; 0.008 µM): 0.811
viability (Duvelisib; 0.04 µM): 0.764
viability (Duvelisib; 0.2 µM): 0.758
viability (Duvelisib; 1 µM): 0.795
viability ([1]; 0.024 µM): 0.862
viability ([1]; 0.12 µM): 0.862
viability ([1]; 0.6 µM): 0.99
viability ([1]; 3 µM): 0.923
viability ([1]; 15 µM): 0.943
viability (Etoposide; 0.032 µM): 1.02
viability (Etoposide; 0.16 µM): 0.974
viability (Etoposide; 0.8 µM): 0.916
viability (Etoposide; 4 µM): 0.981
viability (Etoposide; 20 µM): 0.765
viability ([2]; 0.016 µM): 1.02
viability ([2]; 0.08 µM): 1.02
viability ([2]; 0.4 µM): 1.05
viability ([2]; 2 µM): 1.03
viability ([2]; 10 µM): 0.98
viability (Selinexor; 0.008 µM): 0.903
viability (Selinexor; 0.04 µM): 0.872
viability (Selinexor; 0.2 µM): 0.724
viability (Selinexor; 1 µM): 0.681
viability (Selinexor; 5 µM): 0.685
viability (Navitoclax; 0.0032 µM): 0.95
viability (Navitoclax; 0.016 µM): 1.01
viability (Navitoclax; 0.08 µM): 0.82
viability (Navitoclax; 0.4 µM): 0.508
viability (Navitoclax; 2 µM): 0.084
viability (Midostaurin hydrate; 0.024 µM): 0.997
viability (Midostaurin hydrate; 0.12 µM): 1.01
viability (Midostaurin hydrate; 0.6 µM): 1.04
viability (Midostaurin hydrate; 3 µM): 0.928
viability (Midostaurin hydrate; 15 µM): 0.795
viability (EPZ-6438; 0.024 µM): 1.02
viability (EPZ-6438; 0.12 µM): 1.01
viability (EPZ-6438; 0.6 µM): 1.03
viability (EPZ-6438; 3 µM): 0.993
viability (EPZ-6438; 15 µM): 0.93
viability (SGC 0946; 0.024 µM): 1.02
viability (SGC 0946; 0.12 µM): 0.957
viability (SGC 0946; 0.6 µM): 0.923
viability (SGC 0946; 3 µM): 0.967
viability (SGC 0946; 15 µM): 0.645
